Data as given in BindingDB's records for patent WO2022076495 (MERCK SHARP & DOHME CORP., 2022).

Molecular target: T1, Diacylglycerol O-acyltransferase 2 (Homo sapiens, UniProt Q96PD7)
T1 sequence (Q96PD7 whole entry): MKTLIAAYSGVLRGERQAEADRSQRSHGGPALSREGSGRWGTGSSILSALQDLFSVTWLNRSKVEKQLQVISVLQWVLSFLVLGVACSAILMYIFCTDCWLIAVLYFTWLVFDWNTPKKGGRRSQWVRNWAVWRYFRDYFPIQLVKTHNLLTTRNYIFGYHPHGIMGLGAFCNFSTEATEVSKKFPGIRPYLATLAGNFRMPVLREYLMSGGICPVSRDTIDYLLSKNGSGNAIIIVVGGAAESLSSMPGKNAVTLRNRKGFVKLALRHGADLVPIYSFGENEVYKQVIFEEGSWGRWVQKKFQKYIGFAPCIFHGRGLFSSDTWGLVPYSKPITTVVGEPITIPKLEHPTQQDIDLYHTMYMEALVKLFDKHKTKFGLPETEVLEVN
Test: DGAT2 enzymatic activity assay
Description: DGAT2 activity was determined by measuring the amount of enzymatic product 13Ci8-triolein (13C-l,2,3-Tri(cis-9-octadecenoyl)glycerol) using the membrane prep mentioned above. The assay was carried out in ABgene 384-well assay plates in a final volume of 25 pL at rt. The assay mixture contained the following: assay buffer (100 mM Tris Cl, pH 7.0, 20 mM MgCl2, 5% ethanol), 25 pM of di olein, 5 μM of 13C oleoyl-CoA and 8 ng/pL of DGAT2 membrane.

Row | IC50 | SMILES
1 | 1.6 nM | C[C@H](n1c(=O)n(-c2cccc(OC(F)F)c2)c2ccc(C(=O)NC3(C)CCS(=O)(=O)CC3)cc21)C(C)(C)O [WO2022076495, EXAMPLE 67a]
2 | 211 nM | C[C@@H](n1c(=O)n(-c2cccc(OC(F)F)c2)c2ccc(C(=O)NC3(C)CCS(=O)(=O)CC3)cc21)C(C)(C)O [WO2022076495, EXAMPLE 67b]
3 | 4.1 nM | C[C@H](n1c(=O)n(-c2cccc(OCC(F)F)c2)c2ccc(C(=O)NC3(C)CCS(=O)(=O)CC3)cc21)C(C)(C)O [WO2022076495, EXAMPLE 68a]
4 | 1.8 nM | C[C@@H](n1c(=O)n(-c2cccc(OCC(F)F)c2)c2ccc(C(=O)NC3(C)CCS(=O)(=O)CC3)cc21)C(C)(C)O [WO2022076495, EXAMPLE 68b]
5 | 9.7 nM | CCOc1cc(-n2c(=O)n([C@@H](C)C(C)(C)O)c3cc(C(=O)NC4(C)CCS(=O)(=O)CC4)ccc32)c(F)cn1 [WO2022076495, EXAMPLE 69a]
6 | 3.9 nM | CCOc1cc(-n2c(=O)n([C@H](C)C(C)(C)O)c3cc(C(=O)NC4(C)CCS(=O)(=O)CC4)ccc32)c(F)cn1 [WO2022076495, EXAMPLE 69b]
7 | 1 nM | C[C@H](n1c(=O)n(-c2cc(OC(F)(F)F)ccc2F)c2cc(F)c(C(=O)NC3(C)CCS(=O)(=O)CC3)cc21)C(C)(C)O [WO2022076495, EXAMPLE 70a]
8 | 30 nM | C[C@@H](n1c(=O)n(-c2cc(OC(F)(F)F)ccc2F)c2cc(F)c(C(=O)NC3(C)CCS(=O)(=O)CC3)cc21)C(C)(C)O [WO2022076495, EXAMPLE 70b]
9 | 71 nM | C[C@H](n1c(=O)n(-c2cc(OC(F)(F)F)ccc2F)c2ccc(C(=O)NC3(C)CCS(=O)(=O)CC3)cc21)C(C)(C)O [WO2022076495, EXAMPLE 71a]
10 | 5.4 nM | C[C@@H](n1c(=O)n(-c2cc(OC(F)(F)F)ccc2F)c2ccc(C(=O)NC3(C)CCS(=O)(=O)CC3)cc21)C(C)(C)O [WO2022076495, EXAMPLE 71b]
11 | 6.4 nM | C[C@H](n1c(=O)n(-c2cc(OCC(F)F)ncc2F)c2ccc(C(=O)NC3(C)CCS(=O)(=O)CC3)cc21)C(C)(C)O [WO2022076495, EXAMPLE 72a]
12 | 6.6 nM | C[C@@H](n1c(=O)n(-c2cc(OCC(F)F)ncc2F)c2ccc(C(=O)NC3(C)CCS(=O)(=O)CC3)cc21)C(C)(C)O [WO2022076495, EXAMPLE 72b]
13 | 2.6 nM | C[C@H](n1c(=O)n(-c2cc(OCC(F)F)ccc2F)c2ccc(C(=O)NC3(C)CCS(=O)(=O)CC3)cc21)C(C)(C)O [WO2022076495, EXAMPLE 73a]
14 | 3.3 nM | C[C@@H](n1c(=O)n(-c2cc(OCC(F)F)ccc2F)c2ccc(C(=O)NC3(C)CCS(=O)(=O)CC3)cc21)C(C)(C)O [WO2022076495, EXAMPLE 73b]
15 | 6.1 nM | C[C@H](n1c(=O)n(-c2cc(OCC(F)F)ncc2F)c2cc(F)c(C(=O)NC3(C)CCS(=O)(=O)CC3)cc21)C(C)(C)O [WO2022076495, EXAMPLE 74a]
16 | 6.5 nM | C[C@@H](n1c(=O)n(-c2cc(OCC(F)F)ncc2F)c2cc(F)c(C(=O)NC3(C)CCS(=O)(=O)CC3)cc21)C(C)(C)O [WO2022076495, EXAMPLE 74b]
17 | 1.5 nM | C[C@H](n1c(=O)n(-c2cc(OCC(F)F)ccc2F)c2cc(F)c(C(=O)NC3(C)CCS(=O)(=O)CC3)cc21)C(C)(C)O [WO2022076495, EXAMPLE 75a]
18 | 2.4 nM | C[C@@H](n1c(=O)n(-c2cc(OCC(F)F)ccc2F)c2cc(F)c(C(=O)NC3(C)CCS(=O)(=O)CC3)cc21)C(C)(C)O [WO2022076495, EXAMPLE 75b]
19 | 80 nM | C[C@@H](n1c(=O)n(-c2cccc(OC(F)(F)C(F)F)c2)c2ccc(C(=O)NC3(C)CS(=O)(=O)C3)cc21)C(C)(C)O [WO2022076495, EXAMPLE 76a]
20 | 7.9 nM | C[C@H](n1c(=O)n(-c2cccc(OC(F)(F)C(F)F)c2)c2ccc(C(=O)NC3(C)CS(=O)(=O)C3)cc21)C(C)(C)O [WO2022076495, EXAMPLE 76b]
21 | 5.6 nM | C[C@H](n1c(=O)n(-c2cccc(OC(F)(F)C(F)F)c2)c2cc(F)c(C(=O)NC3(C)CCS(=O)(=O)CC3)cc21)C(C)(C)O [WO2022076495, EXAMPLE 77a]
22 | 9.8 nM | C[C@@H](n1c(=O)n(-c2cccc(OC(F)(F)C(F)F)c2)c2cc(F)c(C(=O)NC3(C)CCS(=O)(=O)CC3)cc21)C(C)(C)O [WO2022076495, EXAMPLE 77b]
23 | 123 nM | CCOc1cc(-n2c(=O)n([C@H](C)C(C)(C)O)c3cc(C(=O)NC4(C)CS(=O)(=O)C4)ccc32)c(F)cn1 [WO2022076495, EXAMPLE 78a]
24 | 13 nM | CCOc1cc(-n2c(=O)n([C@@H](C)C(C)(C)O)c3cc(C(=O)NC4(C)CS(=O)(=O)C4)ccc32)c(F)cn1 [WO2022076495, EXAMPLE 78b]
25 | > 9990 nM | CC1(NC(=O)c2ccc3c(c2)n(S(=O)(=O)c2ccccc2)c(=O)n3-c2cccc(OC(F)F)c2)CCS(=O)(=O)CC1 [WO2022076495, EXAMPLE 86]
26 | 62 nM | CC(C)n1c(=O)n(-c2cccc(OC(F)F)c2)c2ncc(C(=O)NC3(C)CCS(=O)(=O)CC3)cc21 [WO2022076495, EXAMPLE 88]
27 | 74 nM | CC(C)n1c(=O)n(-c2cc(OC(F)F)ccc2F)c2ncc(C(=O)NC3(C)CCS(=O)(=O)CC3)cc21 [WO2022076495, EXAMPLE 103]
28 | 4.1 nM | CC(C)n1c(=O)n(-c2cc(OC(F)F)ncc2F)c2cc(F)c(C(=O)NC3(C)CCS(=O)(=O)CC3)cc21 [WO2022076495, EXAMPLE 115]
29 | 5.5 nM | CC(C)n1c(=O)n(-c2cc(OC(F)(F)C(F)F)ncc2F)c2cc(F)c(C(=O)NC3(C)CCS(=O)(=O)CC3)cc21 [WO2022076495, EXAMPLE 118]
